Experimental data: patent US8247211B2, “Glycopeptide antibiotics” (American Cyanamid Company, priority 2001, dated 2012)

How the values were obtained:
Assay in all cases: In vitro antibacterial evaluation: minimum inhibitory concentration (MIC), broth dilution method
Type in all cases: cell-based
Streptococcus sp. = system: Streptococcus sp.
Outline: (§1)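 Test strains, among them recent clinical isolates carrying methicillin, penicillin and/or vancomycin resistance, were inoculated at 5×10^5 CFU/mL. A broth dilution series spanning 64-0.06 μg/mL in Muller-Hinton II […] (NCCLS M7-A2) defined the MIC as the lowest growth-inhibiting concentration.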

Escherichia coli = system: Escherichia coli
Outline: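 Susceptibility determined by NCCLS-recommended broth dilution (M7-A2), Muller-Hinton II […]. Concentration span 64-0.06 μg/mL, inoculum 5×10^5 CFU/mL. Isolates include strains resistant to methicillin, penicillin and/or vancomycin.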

Enterococcus sp. = system: Enterococcus sp.
Outline: as §1

Staphylococcus sp. = conditions: broth dilution, 18 hours at 35° C.
Outline: as §1

[1] = broth dilution, inoculum 5×10^5 CFU/mL, 18 hours at 35° C.

CC(c1ccccc1)C1NC(=O)CNC(=O)C(CO)NC(=O)C(C(O)C2CNC(=N)N2C2OC(CO)C(O)C(O)C2O)NC(=O)C(C(O)C2CNC(=N)N2)NC(=O)C(Cc2ccc(OC3OC(CO)C(OC4OC5COC(c6ccc(C=Cc7ccccc7)cc6)OC5C(O)C4O)C(O)C3O)cc2)NC1=O (stereo not drawn) [Example 172]
>64 µg/mL: MIC Escherichia coli (ATCC 25922) (Escherichia coli; strain ATCC 25922) | MIC Escherichia coli (GC 4559) (Escherichia coli; strain GC 4559)
0.12 µg/mL: MIC Streptococcus pyogenes (GC 4563) (Streptococcus sp.; [1]) | MIC Streptococcus pyogenes (GC 4563) (Streptococcus sp.; strain GC 4563)
4 µg/mL: MIC Enterococcus avium (GC 4558) (Enterococcus sp.; [1]) | MIC Enterococcus faecalis (GC 2242) (Enterococcus sp.; [1]) | MIC Enterococcus faecalis (GC 2691) (Enterococcus sp.; [1]) | MIC Enterococcus faecalis (GC 4553) (Enterococcus sp.; [1]) | MIC Enterococcus faecalis (GC 4554) (Enterococcus sp.; [1]) | MIC Enterococcus faecalis (GC 2242) (Enterococcus sp.; strain GC 2242) | MIC Enterococcus faecalis (GC 2691) (Enterococcus sp.; strain GC 2691) | MIC Enterococcus faecalis (GC 4553) (Enterococcus sp.; strain GC 4553) | MIC Enterococcus faecalis (GC 4554) (Enterococcus sp.; strain GC 4554) | MIC Enterococcus avium (GC 4558) (Enterococcus sp.; strain GC 4558) | MIC Coagulase Negative Staphylococcus (GC 4551) (Staphylococcus sp.; 5×10^5 CFU/mL) | MIC Staphylococcus aureus (ATCC 29213) (Staphylococcus sp.; 5×10^5 CFU/mL) | MIC Staphylococcus aureus (GC 3051) (Staphylococcus sp.; 5×10^5 CFU/mL) | MIC Staphylococcus aureus (GC 3053) (Staphylococcus sp.; 5×10^5 CFU/mL) | MIC Staphylococcus aureus (GC 4541) (Staphylococcus sp.; 5×10^5 CFU/mL) | MIC Staphylococcus aureus (GC 4545) (Staphylococcus sp.; 5×10^5 CFU/mL) | MIC Staphylococcus aureus (ATCC 29213) (Staphylococcus sp.; strain ATCC 29213) | MIC Staphylococcus aureus (GC 3051) (Staphylococcus sp.; strain GC 3051) | MIC Staphylococcus aureus (GC 3053) (Staphylococcus sp.; strain GC 3053) | MIC Staphylococcus aureus (GC 4541) (Staphylococcus sp.; strain GC 4541) | MIC Staphylococcus aureus (GC 4545) (Staphylococcus sp.; strain GC 4545)
<0.06 µg/mL: MIC Streptococcus agalactiae (GC 4564) (Streptococcus sp.; [1]) | MIC Streptococcus pneumoniae (ATCC 6301) (Streptococcus sp.; [1]) | MIC Streptococcus pneumoniae (GC 1894) (Streptococcus sp.; [1]) | MIC Streptococcus pneumoniae (GC 4565) (Streptococcus sp.; [1]) | MIC Streptococcus pneumoniae (ATCC 6301) (Streptococcus sp.; strain ATCC 6301) | MIC Streptococcus pneumoniae (GC 1894) (Streptococcus sp.; strain GC 1894) | MIC Streptococcus agalactiae (GC 4564) (Streptococcus sp.; strain GC 4564) | MIC Streptococcus pneumoniae (GC 4565) (Streptococcus sp.; strain GC 4565)
8 µg/mL: MIC Enterococcus faecalis (ATCC 29212) (Enterococcus sp.; [1]) | MIC Enterococcus faecalis (GC 3059) (Enterococcus sp.; [1]) | MIC Enterococcus faecalis (GC 4552) (Enterococcus sp.; [1]) | MIC Enterococcus faecium (GC 2243) (Enterococcus sp.; [1]) | MIC Enterococcus faecium (GC 4556) (Enterococcus sp.; [1]) | MIC Enterococcus faecium (GC 4557) (Enterococcus sp.; [1]) | MIC Enterococcus faecalis (ATCC 29212) (Enterococcus sp.; strain ATCC 29212) | MIC Enterococcus faecium (GC 2243) (Enterococcus sp.; strain GC 2243) | MIC Enterococcus faecalis (GC 3059) (Enterococcus sp.; strain GC 3059) | MIC Enterococcus faecalis (GC 4552) (Enterococcus sp.; strain GC 4552) | MIC Enterococcus faecium (GC 4556) (Enterococcus sp.; strain GC 4556) | MIC Enterococcus faecium (GC 4557) (Enterococcus sp.; strain GC 4557) | MIC Coagulase Negative Staphylococcus (GC 4547) (Staphylococcus sp.; 5×10^5 CFU/mL) | MIC Staphylococcus aureus (GC 1131) (Staphylococcus sp.; 5×10^5 CFU/mL) | MIC Staphylococcus aureus (GC 4544) (Staphylococcus sp.; 5×10^5 CFU/mL) | MIC Staphylococcus aureus-SMITH (GC 4543) (Staphylococcus sp.; 5×10^5 CFU/mL) | MIC Staphylococcus haemolyticus (GC 4546) (Staphylococcus sp.; 5×10^5 CFU/mL) | MIC Staphylococcus aureus (GC 1131) (Staphylococcus sp.; strain GC 1131) | MIC Staphylococcus aureus (GC 4544) (Staphylococcus sp.; strain GC 4544)
2 µg/mL: MIC Escherichi coli (GC 4560) (Escherichia coli; strain GC 4560) | MIC Enterococcus faecalis (GC 6189) (Enterococcus sp.; [1]) | MIC Enterococcus faecalis (GC 6189) (Enterococcus sp.; strain GC 6189) | MIC Coagulase Negative Staphylococcus (GC 4548) (Staphylococcus sp.; 5×10^5 CFU/mL) | MIC Coagulase Negative Staphylococcus (GC 4549) (Staphylococcus sp.; 5×10^5 CFU/mL) | MIC Coagulase Negative Staphylococcus (GC 6257) (Staphylococcus sp.; 5×10^5 CFU/mL) | MIC Staphylococcus aureus (GC 4542) (Staphylococcus sp.; 5×10^5 CFU/mL) | MIC Staphylococcus aureus (GC 4542) (Staphylococcus sp.; strain GC 4542)
